Data taken from US20240262845A1, “PYRIDINIUM SALTS, METHODS OF MAKING, AND METHODS OF USE” (UNIVERSITY OF WYOMING, priority 2023, published 2024).
Structures can show the parent of a compound that is named as a salt.

Assays:
[1] = molecular target: T1, thioredoxin (Escherichia coli, UniProt P0AA25); assay: Photochemical labeling of thioredoxin with pyridinium salt (General Procedure B, LC/MS); type: biochemical; settings: trypsin digest
T1 construct: purchased Sigma Aldrich; host or cells: E. coli
T1 sequence (P0AA25 whole entry): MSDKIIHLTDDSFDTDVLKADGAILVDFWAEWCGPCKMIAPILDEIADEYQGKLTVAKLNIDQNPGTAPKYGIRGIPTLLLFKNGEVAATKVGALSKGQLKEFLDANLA
Procedure: (§1) General Procedure B: Photochemical Irradiation of Peptides and Proteins: To a 2 mL Pyrex LC/MS vial (Thermo model #03-391-39) were sequentially added solutions containing the desired biomolecule, glutathione (GSH), pyridinium salt, and ammonium acetate (NH4OAc). The resulting solution was diluted to a final volume of 500 μL and then sparged using nitrogen for a minimum of 30 minutes prior to irradiation. The actively sparging solution was then placed in an EvoluChem™ PhotoRedOx Box photoreactor that was equipped with a Kessil, PR160 427 nm LED Lamp and was then irradiated (100% lamp intensity) for the designated time at room temperature while maintaining active sparging. The resultant reaction mixture was then analyzed directly by LC/MS. Analysis of labeling outcomes using LC/MS was performed either by extracted ion chromatogram intensities (method A) or by integrating the area under the peaks associated with peptide content (method B). These values were totaled, and estimated percentages were assigned according to relative intensities of peaks or ion counts.
Labeling of Thioredoxin with Pyridinium Salt 2a (Thioredoxin-2a Conjugate). […] The reaction mixture was directly analyzed by LC/MS using method A and was estimated to have proceeded with 93% conversion and a 14.5:1 mono:di labeled ratio and 3% glutathionylation of all protein content. […]

[2] = molecular target: Exenatide (Heloderma suspectum, UniProt P26349); assay: Photochemical labeling of exenatide with pyridinium salt (General Procedure B, LC/MS); type: biochemical; settings: trypsin digest
Sequence of Exenatide (P26349 48-86 limits assumed): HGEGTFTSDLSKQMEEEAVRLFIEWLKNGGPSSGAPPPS
Procedure: as §1, with “Analysis of labeling outcomes using LC/MS was performed either by extracted ion chromatogram intensities (method A) or by integrating the area under the peaks associated with peptide content (method B). These values were totaled, and estimated percentages were assigned according to relative intensities of peaks or ion counts.” left out
Labeling of Exenatide with Pyridinium Salt 2a (Exenatide-2a Conjugate). […] The resulting reaction mixture was directly analyzed by LC/MS using method A and was estimated to have proceeded in 70% conversion. […]
General Trypsin Digest Protocol B: For non-cystine bridged labeled proteins, a standard trypsin digest was modified as follows. […] The digested mixture was analyzed directly by LC/MS and MS/MS using method C.
Exenatide-2a Conjugate. […] The digested mixture was analyzed directly by LC-MS and MS/MS. […]

With `COC(=O)N(C)[n+]1c(C)cc(-c2ccc3cc(OC)ccc3c2)cc1C` [pyridinium salt 2a, 1-((methoxycarbonyl)(methyl)amino)-4-(6-methoxynapthalen-2-yl)-2,6-dimethylpyridin-1-ium tetrafluoroborate] the “Modified Trp” value [1] was “Trp-31” and the “Modified Trp” value [2] was “Trp-025”.
